Earlier results on 1 molecule are cited in PubChem BioAssay AID1259409 (Chemical Carcinogenesis Research Information System (CCRIS), 2018).

The data set relates to rodent chemically induced tumor inhibition, incidence and multiplicity. The data set can be described thus: CCRIS tumor inhibitor studies. To be noted: Dose [Inhibitor]: 0.

Turning to `O=C(OC[C@@H]1O[C@H](OC(=O)c2cc(O)c(O)c(OC(=O)c3cc(O)c(O)c(O)c3)c2)[C@@H](OC(=O)c2cc(O)c(O)c(OC(=O)c3cc(O)c(O)c(O)c3)c2)[C@H](OC(=O)c2cc(O)c(O)c(OC(=O)c3cc(O)c(O)c(O)c3)c2)[C@H]1OC(=O)c1cc(O)c(O)c(OC(=O)c2cc(O)c(O)c(O)c2)c1)c1cc(O)c(O)c(OC(=O)c2cc(O)c(O)c(O)c2)c1`, the “tumour outcome (control, treated, inhibition, significance)” value by setting is: (Carcinogen: 7,12-DIMETHYLBENZ[A]ANTHRACENE : 57-97-6, 17 MG 2/WK FOR 20 WK APPLIED 24 HR POST EACH PROMOTER DOSE (STUDY DURATION: 22 WK), Route [Inhibitor]: DERMAL, Species: MOUSE, Strain/Sex: CF-1/FEMALE, Target Tissue: Type of Lesion: SKIN: PAPILLOMA, Dose [Carcinogen]: 25.6 UG IN 0.2 ML ACETONE ONCE, Promoter: 12-O-TETRADECANOYLPHORBOL-13-ACETATE, 16561-29-8) 90%, 98%, -9%, not calculated; (Carcinogen: 7,12-DIMETHYLBENZ[A]ANTHRACENE, 57-97-6, 1% IN DIET FOR 35 WK BEGINNING POST CARCINOGEN DOSE (STUDY DURATION: 36 WK), Route [Inhibitor]: ORAL, Species: RAT, Strain/Sex: SPRAGUE-DAWLEY/FEMALE, Target Tissue: Type of Lesion: EAR DUCT: TUMOR, Dose [Carcinogen]: 50 MG/KG BW IN CORN OIL ONCE, Promoter: NONE USED) 5/15 (33%), 5/15 (33%), 0%, not significant; (Carcinogen: 7,12-DIMETHYLBENZ[A]ANTHRACENE, 57-97-6, 1% IN DIET FOR 35 WK BEGINNING POST CARCINOGEN DOSE (STUDY DURATION: 36 WK), Route [Inhibitor]: ORAL, Species: RAT, Strain/Sex: SPRAGUE-DAWLEY/FEMALE, Target Tissue: Type of Lesion: MAMMARY GLAND: ADENOCARCINOMA, Dose [Carcinogen]: 50 MG/KG BW IN CORN OIL ONCE, Promoter: NONE USED) 14/15 (93%), 12/15 (80%), 14%, not significant; (Carcinogen: 7,12-DIMETHYLBENZ[A]ANTHRACENE, 57-97-6, 1% IN DIET FOR 35 WK BEGINNING POST CARCINOGEN DOSE (STUDY DURATION: 36 WK), Route [Inhibitor]: ORAL, Species: RAT, Strain/Sex: SPRAGUE-DAWLEY/FEMALE, Target Tissue: Type of Lesion: MAMMARY GLAND: FIBROADENOMA, Dose [Carcinogen]: 50 MG/KG BW IN CORN OIL ONCE, Promoter: NONE USED) 3/15 (20%), 2/15 (13%), 35%, not significant; (Carcinogen: 7,12-DIMETHYLBENZ[A]ANTHRACENE, 57-97-6, 2.5 UMOL IN 0.4 ML ACETONE 20 MIN PRIOR TO EACH PROMOTER DOSE (STUDY DURATION: 47 WK), Route [Inhibitor]: DERMAL, Species: MOUSE, Strain/Sex: CF-1/FEMALE, Target Tissue: Type of Lesion: SKIN: PAPILLOMA, Dose [Carcinogen]: 100 NMOL IN 0.2 ML ACETONE ONCE) 94%, 61%, 35%, not calculated; (Carcinogen: 7,12-DIMETHYLBENZ[A]ANTHRACENE, 57-97-6, 5 UMOL IN 0.4 ML ACETONE 20 MIN PRIOR TO EACH PROMOTER DOSE (STUDY DURATION: 47 WK), Route [Inhibitor]: DERMAL, Species: MOUSE, Strain/Sex: CF-1/FEMALE, Target Tissue: Type of Lesion: SKIN: PAPILLOMA, Dose [Carcinogen]: 100 NMOL IN 0.2 ML ACETONE ONCE) 94%, 46%, 51%, not calculated. The “tumour outcome (control, treated, inhibition, significance)” value by setting is: (Carcinogen: 7,12-DIMETHYLBENZ[A]ANTHRACENE, 57-97-6, 10 UMOL IN 0.4 ML ACETONE 20 MIN PRIOR TO EACH PROMOTER DOSE (STUDY DURATION: 47 WK), Route [Inhibitor]: DERMAL, Species: MOUSE, Strain/Sex: CF-1/FEMALE, Target Tissue: Type of Lesion: SKIN: CARCINOMA, Dose [Carcinogen]: 100 NMOL IN 0.2 ML ACETONE ONCE) 67%, 11%, 84%, not calculated; (Carcinogen: 7,12-DIMETHYLBENZ[A]ANTHRACENE, 57-97-6, 10 UMOL IN 0.4 ML ACETONE 20 MIN PRIOR TO EACH PROMOTER DOSE (STUDY DURATION: 47 WK), Route [Inhibitor]: DERMAL, Species: MOUSE, Strain/Sex: CF-1/FEMALE, Target Tissue: Type of Lesion: SKIN: PAPILLOMA, Dose [Carcinogen]: 100 NMOL IN 0.2 ML ACETONE ONCE) 94%, 43%, 54%, not calculated; (Carcinogen: 7,12-DIMETHYLBENZ[A]ANTHRACENE, 57-97-6, 17 MG 2/WK FOR 2 WK APPLIED 20 MIN PRIOR TO EACH TPA DOSE (STUDY DURATION: 22 WK), Route [Inhibitor]: DERMAL, Species: MOUSE, Strain/Sex: SENCAR/FEMALE, Target Tissue: Type of Lesion: SKIN: PAPILLOMA, Dose [Carcinogen]: 6.4 UG IN 0.2 ML ACETONE ONCE, Promoter: 12-O-TETRADECANOYLPHORBOL-13-ACETATE, 16561-29-8, MEZEREIN, 34807-41-5, Promoter: 12-O-TETRADECANOYLPHORBOL-13-ACETATE, 16561-29-8, MEZEREIN, 34807-41-5) 90%, 94%, -4%, not calculated; (Carcinogen: 7,12-DIMETHYLBENZ[A]ANTHRACENE, 57-97-6, 17 MG 2/WK FOR 18 WK APPLIED 20 MIN PRIOR TO EACH MEZEREIN DOSE (STUDY DURATION: 22 WK), Route [Inhibitor]: DERMAL, Species: MOUSE, Strain/Sex: SENCAR/FEMALE, Target Tissue: Type of Lesion: SKIN: PAPILLOMA, Dose [Carcinogen]: 6.4 UG IN 0.2 ML ACETONE ONCE, Promoter: 12-O-TETRADECANOYLPHORBOL-13-ACETATE, 16561-29-8 : MEZEREIN, 34807-41-5, Promoter: 12-O-TETRADECANOYLPHORBOL-13-ACETATE, 16561-29-8 : MEZEREIN, 34807-41-5) 90%, 62%, 31%, not calculated; (Carcinogen: 7,12-DIMETHYLBENZ[A]ANTHRACENE, 57-97-6, 17 MG 2/WK FOR 20 WK APPLIED 20 MIN PRIOR TO AND 24 HR POST EACH PROMOTER DOSE (STUDY DURATION: 22 WK), Route [Inhibitor]: DERMAL, Species: MOUSE, Strain/Sex: CF-1/FEMALE, Target Tissue: Type of Lesion: SKIN: PAPILLOMA, Dose [Carcinogen]: 25.6 UG IN 0.2 ML ACETONE ONCE, Promoter: 12-O-TETRADECANOYLPHORBOL-13-ACETATE, 16561-29-8) 90%, 16%, 82%, not calculated.
